Measurements taken from patent US20260285846A1, “REV-ERB AGONISTS FOR TH17-MEDIATED INFLAMMATORY DISORDERS” (UNIVERSITY OF FLORID RESEARCH FOUNDATION, iNCORPORATED, priority 2021, published 2026).

Target: REV-ERBα LBD (Homo sapiens, UniProt P20393, DEL324-422)
Experiment: biochemical
Conditions: FRET assay; 6xHistag-REV-ERBα LBD with FITC-labeled SMRT corepressor peptide; read-out: REVERBα (Agonism of REV-ERBα, EC50)
Outline: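 TR-FRET corepressor recruitment: 4 nM His-tagged human REV-ERBα LBD (residues 281-614 Δ324-422, or 381-579), 1 nM Tb-anti-His antibody and 400 nM FITC-SMRT peptide in pH 7.4 phosphate buffer with DTT; ligands in triplicate, 2 h at 4° C. 520/495 nm ratio fitted to sigmoidal dose-response for EC50.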

Chain of REV-ERBα LBD (P20393 with tags, fused parts or gaps DEL324-422): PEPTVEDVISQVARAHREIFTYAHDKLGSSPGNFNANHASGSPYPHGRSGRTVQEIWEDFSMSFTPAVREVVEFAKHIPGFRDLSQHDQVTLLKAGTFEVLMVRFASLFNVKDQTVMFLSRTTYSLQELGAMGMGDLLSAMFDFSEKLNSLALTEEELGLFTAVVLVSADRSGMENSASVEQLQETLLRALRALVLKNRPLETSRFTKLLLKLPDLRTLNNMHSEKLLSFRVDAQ
Chain of REV-ERBα LBD (Q9Y618 2335-2356 partner limits assumed): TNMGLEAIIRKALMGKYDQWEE

| SMILES | EC50 |
| --- | --- |
| CC(NS(=O)(=O)C1CC1)c1cn(CC(C)(C)C)c2cc(-c3cncc(F)c3)c(F)cc12 (stereo not shown) [Compound 68, N-(1-(5-fluoro-6-(5-fluoropyridin-3-yl)-1-neopentyl-1H-indol-3-yl)ethyl)cyclopropanesulfonamide] | 100 to 1000 nM |
| CC(C)(C)Cn1cc([C@H](NS(=O)(=O)C2CC2)C(F)(F)F)c2ccc(-c3ccccc3C#N)nc21 [Compound 1, (S)—N-(1-(6-(2-cyanophenyl)-1-neopentyl-1H-pyrrolo[2,3-b]pyridin-3-yl)-2,2,2-trifluoroethyl)cyclopropanesulfonamide] | 100 to 1000 nM |
| CC(NS(=O)(=O)C1CC1)c1cn(CC(C)(C)C)c2cc(-c3c(F)cccc3C#N)ccc12 (single isomer, unassigned) [Compound 26, (R or S) N-(1-(6-(2-cyano-6-fluorophenyl)-1-neopentyl-1H-indol-3-yl)ethyl)cyclopropanesulfonamide] | 100 to 1000 nM |
| CC(C)(C)Cn1cc([C@H](NS(=O)(=O)C2CC2)C(F)F)c2ccc(-c3ccccc3C(F)F)cc21 [Compound 81, (S)—N-(1-(6-(2-(difluoromethyl)phenyl)-1-neopentyl-1H-indol-3-yl)-2,2-difluoroethyl)cyclopropanesulfonamide] | < 100 nM |
| Cn1ncc(C(F)F)c1-c1cc2c(cc1F)c([C@H](NS(=O)(=O)C1CC1)C(F)F)cn2CC(C)(C)C [Compound 125, (S)—N-(1-(6-(4-(difluoromethyl)-1-methyl-1H-pyrazol-5-yl)-5-fluoro-1-neopentyl-1H-indol-3-yl)-2,2-difluoroethyl)cyclopropanesulfonamide] | < 100 nM |
| CC(C)(C)Cn1cc([C@H](NS(=O)(=O)N2CC(F)C2)C(F)F)c2cc(F)c(-c3ccccc3C(F)(F)F)cc21 [Compound 76, (S)—N-(2,2-difluoro-1-(5-fluoro-1-neopentyl-6-(2-(trifluoromethyl)phenyl)-1H-indol-3-yl)ethyl)-3-fluoroazetidine-1-sulfonamide] | < 100 nM |
| CC(C)(C)Cn1cc([C@H](NS(=O)(=O)C2CC2)C(F)F)c2cc(F)c(-c3ccc(F)cc3C(F)(F)F)nc21 [Compound 153, (S)—N-(2,2-difluoro-1-(5-fluoro-6-(4-fluoro-2-(trifluoromethyl)phenyl)-1-neopentyl-1H-pyrrolo[2,3-b]pyridin-3-yl)ethyl)cyclopropanesulfonamide] | < 100 nM |
| CC(C)(C)Cn1cc([C@H](NS(=O)(=O)C2CC2)C(F)F)c2cc(F)c(-c3cc(F)cnc3C(F)F)cc21 [Compound 123, (S)—N-(1-(6-(2-(difluoromethyl)-5-fluoropyridin-3-yl)-5-fluoro-1-neopentyl-1H-indol-3-yl)-2,2-difluoroethyl)cyclopropanesulfonamide] | < 100 nM |
| O=S(=O)(N[C@@H](c1cn(C2COC2)c2nc(-c3ccc(F)cc3C(F)(F)F)c(F)cc12)C(F)F)C1CC1 [Compound 177, (S)—N-(2,2-difluoro-1-(5-fluoro-6-(4-fluoro-2-(trifluoromethyl)phenyl)-1-(oxetan-3-yl)-1H-pyrrolo[2,3-b]pyridin-3-yl)ethyl)cyclopropanesulfonamide] | 100 to 1000 nM |
| CC(C)(C)Cn1cc([C@H](NS(=O)(=O)C2CC2)C(F)(F)F)c2cc(F)c(-c3ncccc3C(F)(F)F)cc21 [Compound 9, (S)—N-(2,2,2-trifluoro-1-(5-fluoro-1-neopentyl-6-(3-(trifluoromethyl)pyridin-2-yl)-1H-indol-3-yl)ethyl)cyclopropanesulfonamide] | 100 to 1000 nM |
| Cc1cnc(C(F)(F)F)c(-c2nc3c(cc2F)c([C@H](NS(=O)(=O)C2CC2)C(F)F)cn3C2CCC2)c1 [Compound 157, (S)—N-(1-(1-cyclobutyl-5-fluoro-6-(5-methyl-2-(trifluoromethyl)pyridin-3-yl)-1H-pyrrolo[2,3-b]pyridin-3-yl)-2,2-difluoroethyl)cyclopropanesulfonamide] | < 100 nM |
| CC(C)(C)Cn1cc([C@H](NS(=O)(=O)C2CC2)C(F)F)c2cc(F)c(-c3cncnc3C(F)(F)F)cc21 [Compound 112, (S)—N-(2,2-difluoro-1-(5-fluoro-1-neopentyl-6-(4-(trifluoromethyl)pyrimidin-5-yl)-1H-indol-3-yl)ethyl)cyclopropanesulfonamide] | < 100 nM |

Further lines, results first:

| EC50 | SMILES |
| --- | --- |
| < 100 nM | CC(C)(C)Cn1cc([C@H](NS(=O)(=O)C2CC2)C(F)F)c2ccc(-c3cccnc3C(F)(F)F)cc21 [Compound 13, (S)—N-(2,2-difluoro-1-(1-neopentyl-6-(2-(trifluoromethyl)pyridin-3-yl)-1H-indol-3-yl)ethyl)cyclopropanesulfonamide] |
| < 100 nM | CC(NS(=O)(=O)C1CC1)c1cn(CC(C)(C)C)c2cc(C3CCOCC3)ccc12 (single isomer, unassigned) [Compound 23, (R or S) N-(1-(1-neopentyl-6-(tetrahydro-2H-pyran-4-yl)-1H-indol-3-yl)ethyl)cyclopropanesulfonamide] |
| < 100 nM | CC(C)(C)Cn1cc([C@H](NS(=O)(=O)C2CC2)C(F)F)c2cc(F)c(-c3c(C#N)ccnc3C(F)(F)F)cc21 [Compound 55, N-((1S)-1-(6-(4-cyano-2-(trifluoromethyl)pyridin-3-yl)-5-fluoro-1-neopentyl-1H-indol-3-yl)-2,2-difluoroethyl)cyclopropanesulfonamide] |
| < 100 nM | CC(C)(C)Cn1cc([C@H](NS(=O)(=O)C2CC2)C(F)F)c2ccc(-c3ccc(N)nc3C(F)(F)F)cc21 [Compound 167, (S)—N-(1-(6-(6-amino-2-(trifluoromethyl)pyridin-3-yl)-1-neopentyl-1H-indol-3-yl)-2,2-difluoroethyl)cyclopropanesulfonamide] |
| < 100 nM | N#Cc1nccc(C(F)F)c1-c1cc2c(cc1F)c([C@H](NS(=O)(=O)C1CC1)C(F)F)cn2C1CCC1 [Compound 161, N-((1S)-1-(6-(2-cyano-4-(difluoromethyl)pyridin-3-yl)-1-cyclobutyl-5-fluoro-1H-indol-3-yl)-2,2-difluoroethyl)cyclopropanesulfonamide] |
| < 100 nM | CC(C)(C)Cn1cc([C@H](NS(=O)(=O)C2CC2)C(F)F)c2ccc(-c3ncc(F)cc3Cl)cc21 [Compound 78, (S)—N-(1-(6-(3-chloro-5-fluoropyridin-2-yl)-1-neopentyl-1H-indol-3-yl)-2,2-difluoroethyl)cyclopropanesulfonamide] |
| < 100 nM | N#CC1CC(n2cc([C@H](NS(=O)(=O)C3CC3)C(F)F)c3cc(F)c(-c4cc(F)cnc4C(F)(F)F)cc32)C1 (stereo partly drawn) [Compound 151, (S)—N-(1-(1-(3-cyanocyclobutyl)-5-fluoro-6-(5-fluoro-2-(trifluoromethyl)pyridin-3-yl)-1H-indol-3-yl)-2,2-difluoroethyl)cyclopropanesulfonamide] |
| < 100 nM | CC(NS(=O)(=O)C1CC1)c1cn(CC(C)(C)C)c2cc(-c3cccnc3C(F)(F)F)c(F)cc12 (single isomer, unassigned) [Compound 28, N-[1-[1-(2,2-dimethylpropyl)-5-fluoro-6-[2-(trifluoromethyl)-3-pyridyl]indol-3-yl]ethyl]cyclopropanesulfonamide] |
| < 100 nM | CC(C)S(=O)(=O)N[C@@H](c1cn(CC(C)(C)C)c2cc(-c3cccnc3C(F)(F)F)c(F)cc12)C(F)F [Compound 42, (S)—N-(2,2-difluoro-1-(5-fluoro-1-neopentyl-6-(2-(trifluoromethyl)pyridin-3-yl)-1H-indol-3-yl)ethyl)propane-2-sulfonamide] |
| < 100 nM | CC(C)(C)Cn1cc([C@H](NS(=O)(=O)C2CC2)C(F)F)c2cc(F)c(-c3ncc(F)cc3C#N)cc21 [Compound 94, (S)—N-(1-(6-(3-cyano-5-fluoropyridin-2-yl)-5-fluoro-1-neopentyl-1H-indol-3-yl)-2,2-difluoroethyl)cyclopropanesulfonamide] |
| < 100 nM | N#Cc1cccc(C(F)(F)F)c1-c1nc2c(cc1F)c([C@H](NS(=O)(=O)C1CC1)C(F)F)cn2C1CCC1 [Compound 158, N-((1S)-1-(6-(2-cyano-6-(trifluoromethyl)phenyl)-1-cyclobutyl-5-fluoro-1H-pyrrolo[2,3-b]pyridin-3-yl)-2,2-difluoroethyl)cyclopropanesulfonamide] |
| < 100 nM | CC(NS(=O)(=O)C1CC1)c1cn(CC(C)(C)C)c2cc(-c3ncc(F)cc3Cl)c(F)cc12 (stereo not shown) [Compound 62, N-(1-(6-(3-chloro-5-fluoropyridin-2-yl)-5-fluoro-1-neopentyl-1H-indol-3-yl)ethyl)cyclopropanesulfonamide] |
| < 100 nM | N#Cc1nccc(C(F)F)c1-c1nc2c(cc1F)c([C@H](NS(=O)(=O)C1CC1)C(F)F)cn2C1CCC1 [Compound 162, N-((1S)-1-(6-(2-cyano-4-(difluoromethyl)pyridin-3-yl)-1-cyclobutyl-5-fluoro-1H-pyrrolo[2,3-b]pyridin-3-yl)-2,2-difluoroethyl)cyclopropanesulfonamide] |
| < 100 nM | CC(C)(C)Cn1cc([C@H](NS(=O)(=O)C2CC2)C(F)F)c2ccc(-c3ncccc3C3CC3)cc21 [Compound 101, (S)—N-(1-(6-(3-cyclopropylpyridin-2-yl)-1-neopentyl-1H-indol-3-yl)-2,2-difluoroethyl)cyclopropanesulfonamide] |
| < 100 nM | CC(C)(C)Cn1cc([C@H](NS(=O)(=O)C2CCC2)C(F)F)c2ccc(-c3cccnc3C(F)(F)F)cc21 [Compound 14, (S)—N-(2,2-difluoro-1-(1-neopentyl-6-(2-(trifluoromethyl)pyridin-3-yl)-1H-indol-3-yl)ethyl)cyclobutanesulfonamide] |
| < 100 nM | CC(C)(C)Cn1cc([C@H](NS(=O)(=O)C2CC2)C(F)F)c2ccc(-c3cc(F)cnc3C(F)F)cc21 [Compound 119, (S)—N-(1-(6-(2-(difluoromethyl)-5-fluoropyridin-3-yl)-1-neopentyl-1H-indol-3-yl)-2,2-difluoroethyl)cyclopropanesulfonamide] |
